Marks after values point to notes of the source that are not given here. One block for each compound: values may come before it.
What was measured:
[1] = Laser stability / photobleaching of dye solution on repeated laser exposure; format: physicochemical; conditions: for Laser Stability: 25 exposures
Procedure: An 813-nm diode laser source at 1.2W (1.9A) (Opto Power Corp., Tucson, Ariz. ) was used to heat a 10μL volume of near-IR dye at a concentration (0.1 mg/mL for 785 WS, 0.2 mg/iL for SDA 8080) to yield a 35° C. rise in temperature. The laser was manually turned on long enough for the temperature in a 10-μL well to increase by 35° C. (1-3 seconds) and was manually turned off when that level was attained. The temperature data was obtained using a thermocouple in the well, and the transmittance data was obtained via a power meter whose signals were digitized and graphically interpreted.
In another experiment, the 10 μL well was used to see if the dye/surfactant mixture could withstand laser cycling over a period of 30 cycles. The laser power was systematically varied from 60° C. to 94° C., 30 times.
Unlike in Example 8, some dyes and dye/surfactant complexes undergo photodegradation when exposed to laser beam. […] Specifically, in the case of 785 WS/BRIJ-97, the addition of ascorbic acid (typically 5 mg/mL) helped reduce the amount of photobleaching from 100% to 20% after 30 cycles. In some circumstances, rapid/controlled photodegradation may be desired. […] This would allow DNA tags (fluorescent or vis/IR) to be monitored at the end of the PCR reaction.
Vitamin E-TPGS has both surfactant as well as antioxidant properties.

[2] = biological target: T1, AMPLITAQ DNA polymerase (Taq polymerase) (Thermus aquaticus, UniProt P19821); assay: PCR amplification of PERV protease fragment (327 bp) in presence of dye/surfactant; product on agarose gel or quantitated with Agilent 2100 Bioanalyzer; format: biochemical; conditions: for effect of dye on PCR (Example 6): dye at typical concentrations of 0.1 or 0.2 mg/mL, without surfactant, agarose gel
T1 construct: purchased Applied Biosystems, Foster City, Calif
Procedure: Typically, a fresh stock solution of 5 milligrams (mg) of a water-insoluble near-infrared dye (NIR dye) was dissolved in 50 microliters (μL) of dimethylsulfoxide (DMSO) and brought up in water to a final volume of 1 milliliter (mL). This was then diluted out to various concentrations of dye. The diluted dye (typically 0.2 mg/mL) was then added to a surfactant solution (typically 4 wt-%) to form a complex. The complex was added to a PCR reaction.
PCR reactions were set up for a conserved sequence (327 bp) in the protease region of the genome of porcine endogenous retrovirus using a plasmid containing the PERV protease fragment, a forward primer and a reverse primer designed using a primer express program from Applied Biosystems, and AMPLITAQ DNA polymerase cocktail (commercially available from Applied Biosystems, Foster City, Calif.) and cycled in a thermocycler (9700, Applied Biosystems). The PCR reactions were typically carried out in 25-μL volumes. The NIR dye/surfactant mixture was added to the PCR cocktail to give the desired concentration of dye and surfactant in a total volume of 25 μL. A typical PCR cocktail contains 10x buffer, 2.5 μL; dNTPs, 2.0 μL (200 μM of each); forward primer, 0.5 μL (200 nM); reverse primer, 0.5 μL (200 nM); template DNA, 1.0 (1 ng/μL); Amplitaq, 0.25 μL (1.25 units); sterile water, 18.25 μL.
The products of PCR reactions were run on 1% agarose gel containing ethidium bromide and visualized using an ALPHA IMAGER (Alpha Innotech Corp., San Leandro, Calif.). […] However, a higher concentration of dye (0.1 mg/mL) for effective heating was needed. Thus, for all further PCR experiments, a dye concentration of 0.1 mg/mL or higher was used. […] Taq polymerase was tested from different manufacturers (Promega Corp., Madison, Wis.; Roche Biochemicals, Indianapolis, Ind.; Eppendorf, Scientific Inc., Westbury, N.Y.; Sigma, St. Louis, Mo.) and all the Taq polymerases were inhibited by 785 WS and SDA 8080.
In order to find out the optimum concentration of surfactant for PCR with NIR dye (785 WS and SDA 8080), the surfactant concentration in PCR reaction was varied from 0.1 wt-% to 4 wt-%. The PCR product formed was quantitated using DNA 7500 Labchip kit in Agilent 2100 Bioanalyzer (Agilent Inc, Paloalto, Calif.). The results shown in Table 3 indicate that increasing the concentration of surfactant relative to dye assists in the formation of PCR product.
A variety of dyes (NIR dyes such as IR782, IR768, SDA 2141, SDA8327, IR 830 WS, fluorescent dyes like oligreen and visible dyes like dichlorophenol, indophenol, saffranin, crystal violet, and commercially available food coloring) at typical concentrations of 0.1 or 0.2 mg/mL were allowed to interact with 4 wt-% PLURONIC F127 and each mixture was added to the PCR cocktail. The reaction was set up to amplify PERV protease fragment as described in Example 2 and the products of the reaction were analyzed by agarose gel electrophoresis.

[3] = Thermal degradation of dye: absorbance at beginning and end of thermal cycling; format: physicochemical
Excerpt: The dyes SDA 8080 and 785 WS were mixed with a variety of surfactants such as PLURONIC F-127, TWEEN-20, TRITON X-100, NP-40, BRIJ-97 and cycled in a thermocycler (9700, Applied Biosystems). Absorbance readings were taken at the beginning and end of thermal cycling using HP Chem Station (HP 8453, Agilent Technologies, Palo Alto, Calif.) at 785 nm for the 785 WS dye and 1040 nm for the SDA 8080 dye. […] Thus, the surfactant helps to protect thermal degradation of the dye.

[4] = 785 WS (0.1 mg/mL), surfactant 0.5 wt %, absorbance at 785 nm
[5] = 785 WS (0.1 mg/mL), surfactant 2 wt %, absorbance at 785 nm
[6] = 785 WS (0.1 mg/mL), surfactant 4 wt %, absorbance at 785 nm
[7] = SDA 8080 (0.2 mg/mL), surfactant 0.5 wt %, absorbance at 1040 nm
[8] = SDA 8080 (0.2 mg/mL), surfactant 2 wt %, absorbance at 1040 nm
[9] = SDA 8080 (0.2 mg/mL), surfactant 4 wt %, absorbance at 1040 nm
[10] = 785 WS 0.1 mg/mL, surfactant 0.1 wt %
[11] = 785 WS 0.1 mg/mL, surfactant 0.5 wt %
[12] = 785 WS 0.1 mg/mL, surfactant 1 wt %
[13] = 785 WS 0.1 mg/mL, surfactant 2 wt %
[14] = 785 WS 0.1 mg/mL, surfactant 4 wt %
[15] = SDA 8080 0.2 mg/mL, surfactant 0.5 wt %
[16] = SDA 8080 0.2 mg/mL, surfactant 1 wt %
[17] = SDA 8080 0.2 mg/mL, surfactant 2 wt %
[18] = SDA 8080 0.2 mg/mL, surfactant 4 wt %
[19] = surfactant 4 wt %, 785 WS 0 mg/mL (no dye), data from a different experiment under identical PCR conditions
[20] = surfactant 4 wt %, SDA 8080 0 mg/mL (no dye), data from a different experiment under identical PCR conditions
[21] = 785 WS (0.1 mg/mL), surfactant 0.1 wt %, absorbance at 785 nm
[22] = SDA 8080 (0.2 mg/mL), surfactant 0.1 wt %, absorbance at 1040 nm
[23] = SDA 8080 0.2 mg/mL, surfactant 0.1 wt %
[24] = 785 WS (0.1 mg/mL), surfactant 20 wt %, * can be made laser stable after addition of antioxidant
[25] = SDA 8080 (0.2 mg/mL), surfactant 20 wt %

T1 sequence (P19821 whole entry, the tested form may be a part): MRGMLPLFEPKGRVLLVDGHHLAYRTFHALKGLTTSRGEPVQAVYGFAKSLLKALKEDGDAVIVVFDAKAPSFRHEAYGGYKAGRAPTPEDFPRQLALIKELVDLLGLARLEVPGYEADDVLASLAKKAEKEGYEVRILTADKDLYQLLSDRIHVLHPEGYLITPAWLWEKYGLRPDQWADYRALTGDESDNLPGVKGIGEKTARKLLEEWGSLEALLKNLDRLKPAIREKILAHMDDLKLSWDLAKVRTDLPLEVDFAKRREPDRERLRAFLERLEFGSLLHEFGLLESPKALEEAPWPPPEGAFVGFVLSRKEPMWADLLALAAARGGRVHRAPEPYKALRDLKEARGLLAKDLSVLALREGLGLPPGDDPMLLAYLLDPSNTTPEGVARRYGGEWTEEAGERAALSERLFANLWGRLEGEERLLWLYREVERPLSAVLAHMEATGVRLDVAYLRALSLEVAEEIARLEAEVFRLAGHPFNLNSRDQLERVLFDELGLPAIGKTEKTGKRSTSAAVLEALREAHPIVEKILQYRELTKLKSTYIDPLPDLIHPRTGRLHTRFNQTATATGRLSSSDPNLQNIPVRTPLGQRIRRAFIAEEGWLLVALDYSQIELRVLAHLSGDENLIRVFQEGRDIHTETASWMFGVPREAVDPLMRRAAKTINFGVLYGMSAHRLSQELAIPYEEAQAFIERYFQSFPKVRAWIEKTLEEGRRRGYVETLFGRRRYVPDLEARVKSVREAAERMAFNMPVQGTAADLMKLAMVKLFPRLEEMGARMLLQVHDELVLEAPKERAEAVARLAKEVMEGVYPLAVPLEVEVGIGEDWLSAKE

- effect of antioxidant on photobleaching of 785 WS ([1]; added to virtually any of the surfactants tested with 785 WS): reduced photobleaching significantly
Compound: O=C1O[C@H]([C@@H](O)CO)C(O)=C1O [ascorbic acid]

Compound: Cc1cc2nc3cc(C)c(N)cc3[n+](-c3ccccc3)c2cc1N.[Cl-] [saffranin]
- effect of dye on PCR (Example 6) [2]: inhibited PCR

- Thermal Degradation [3, 4]: 6.5%
- Thermal Degradation [3, 5]: 4.0%
- Thermal Degradation [3, 6]: 5.3%
- Thermal Degradation [3, 7]: 89.5%
- Thermal Degradation [3, 8]: 88.9%
- Thermal Degradation [3, 9]: 92.3%
- light stability ([1]; Vitamin E-TPGS 4 wt-% added to 785 WS 0.1 mg/mL, after 30 cycles of laser exposure): significantly increased
Compound: d-Alpha tocopheryl polyethylene glycol 1000 [Vitamin E TPGS]
- Laser Stability ([1]; 785 WS (0.1 mg/mL), surfactant 4 wt %, * can be made laser stable after addition of antioxidant): + (less than a 20% degradation in dye absorbance over a period of 25 exposures)

Compound: CN(C)c1ccc(C(=C2C=CC(=[N+](C)C)C=C2)c2ccc(N(C)C)cc2)cc1 [crystal violet]
- effect of dye on PCR (Example 6) [2]: inhibited PCR

Compound: dichlorophenol
- effect of dye on PCR (Example 6) [2]: inhibited PCR

Compound: Nonyl phenoxy poly (ethyleneoxy) ethanol [NP-40]
- PCR Product [2, 10]: 0 ng/µL
- PCR Product [2, 11]: 0 ng/µL
- PCR Product [2, 12]: 0 ng/µL
- PCR Product [2, 13]: 0.3 ng/µL
- PCR Product [2, 14]: 3.8 ng/µL
- PCR Product ([2]; SDA 8080 0.1 mg/mL, surfactant 0.1 wt %): 0 ng/µL
- PCR Product [2, 15]: 23.3 ng/µL
- PCR Product [2, 16]: 23.7 ng/µL
- PCR Product [2, 17]: 17.2 ng/µL
- PCR Product [2, 18]: 18 ng/µL
- PCR Product [2, 19]: 24.2* ng/μL
- PCR Product [2, 20]: 24.2* ng/μL
- Thermal Degradation [3, 21]: 20.2%
- Thermal Degradation [3, 6]: 27.4%
- Thermal Degradation [3, 22]: 82.1%
- Thermal Degradation [3, 9]: 48.8%

Compound: Octyl phenoxy polyethoxyethanol [TRITON X-100]
- PCR Product [2, 10]: 0 ng/µL
- PCR Product [2, 11]: 0.1 ng/µL
- PCR Product [2, 12]: 0.4 ng/µL
- PCR Product [2, 13]: 2.2 ng/µL
- PCR Product [2, 14]: 1.3 ng/µL
- PCR Product [2, 23]: 0 ng/µL
- PCR Product [2, 15]: 2.3 ng/µL
- PCR Product [2, 16]: 1.4 ng/µL
- PCR Product [2, 17]: 1.9 ng/µL
- PCR Product [2, 18]: 1.1 ng/µL
- PCR Product [2, 19]: 23.8* ng/μL
- PCR Product [2, 20]: 23.8* ng/μL
- Thermal Degradation [3, 21]: 24.8%
- Thermal Degradation [3, 6]: 4.6%
- Thermal Degradation [3, 22]: 76.0%
- Thermal Degradation [3, 9]: 0.0%
- Thermal Degradation ([3]; SDA 8080 (0.2 mg/mL), surfactant 20 wt %, absorbance at 1040 nm): 7.1%
- Laser Stability [1, 24]: −* (greater than 20% degradation in dye absorbance over a period of 25 exposures)
- Laser Stability [1, 25]: + (less than a 20% degradation in dye absorbance over a period of 25 exposures)

Compound: Polyoxyethylene (10) oleyl ether [BRIJ 97]
- PCR Product [2, 10]: 0 ng/µL
- PCR Product [2, 11]: 0 ng/µL
- PCR Product [2, 12]: 0 ng/µL
- PCR Product [2, 13]: 13.8 ng/µL
- PCR Product [2, 14]: 21.9 ng/µL
- PCR Product [2, 23]: 18.7 ng/µL
- PCR Product [2, 15]: 19.3 ng/µL
- PCR Product [2, 16]: 23.5 ng/µL
- PCR Product [2, 17]: 25.5 ng/µL
- PCR Product [2, 18]: 22.6 ng/µL
- Thermal Degradation ([3]; 785 WS (0.1 mg/mL), surfactant 0.01 wt %, absorbance at 785 nm): 79.0%
- Thermal Degradation [3, 4]: 95.0%
- Thermal Degradation ([3]; 785 WS (0.1 mg/mL), surfactant 1 wt %, absorbance at 785 nm): 94.5%
- Thermal Degradation [3, 5]: 94.5%
- Thermal Degradation [3, 6]: 96.0%
- Thermal Degradation ([3]; SDA 8080 (0.2 mg/mL), surfactant 0.01 wt %, absorbance at 1040 nm): 86.2%
- Thermal Degradation [3, 7]: 67.7%
- Thermal Degradation ([3]; SDA 8080 (0.2 mg/mL), surfactant 1 wt %, absorbance at 1040 nm): 50.0%
- Thermal Degradation [3, 8]: 29.4%
- Thermal Degradation [3, 9]: 6.0%
- Laser Stability [1, 24]: −* (greater than 20% degradation in dye absorbance over a period of 25 exposures)
- Laser Stability [1, 25]: + (less than a 20% degradation in dye absorbance over a period of 25 exposures)
